In patent US11965091B2, “Biocide free associative thickener” (Rohm and Haas Company, priority 2019, dated 2024):
Structures can show the parent of a compound that is named as a salt.

Test system: standard pool of bacteria, yeasts, and molds
Experiment: Microbial challenge test
Assay type: cell-based
Details: for microbial challenge test (by acid): HEURs treated with the named acid
Description: Compositions within and outside the scope of the present invention were tested for microbial growth susceptibility using a series of microbial challenge tests.
Samples were inoculated 2 times at 7-d intervals with 10^6-10^7 colony forming units per milliliter of sample (CFU/mL) of a standard pool of bacteria, yeasts, and molds obtained from American Type Culture Collection (ATCC) that are common contaminants in coatings. Once inoculated, the samples were stored in 25° C. incubators. Test samples were monitored for microbial contamination by agar plating using a standard streak plate method. Samples were plated 1 and 7 day after each microbial challenge onto trypticase soy agar (TSA) and potato dextrose agar (PDA) plates. All agar plates were checked daily up to 7 d after plating to determine the number of microorganisms surviving in the test samples. When not being checked, the agar plates were stored in incubators, 30° C. for TSA plates and 25° C. for PDA plates. The extent of microbial contamination was established by counting the colonies, where the rating score was determined from the number of microbial colonies observed on the agar plates. Reported results come from day 7 readings. Table 1 illustrates the rating system used to estimate the level of microbial contamination on streak plates. Colonies refers to the number of colonies on the plate.

## Cl [HCl, hydrochloric acid]
  microbial challenge test (by acid): passed

## O=P(O)(O)O [phosphoric acid]
  microbial challenge test (by acid): passed
pH of 2.8
  microbial challenge test at a pH of 2.8: not optimal
pH of 3.3
  microbial challenge test at a pH of 3.3: failed

## O=S(=O)(O)O [Example H2SO4, sulfuric acid]
  microbial challenge test (by acid): passed

## O=P(O)(O)CN(CP(=O)(O)O)CP(=O)(O)O [NTMTPA, nitrilotris(methylene)triphosphonic acid]
  microbial challenge test (by acid): passed
